The record followed here is patent US20230174526A1, “BENZOTHIAZOLYL BIARYL COMPOUND, AND PREPARATION METHOD AND USE” (SHANGHAI RINGENE BIOPHARMA CO., LTD., priority 2020, published 2023).

One experiment has as its target T1, KRAS^G12C/SOS1 (Homo sapiens, UniProt P01116, G12C).
T1 construct: purchased CisBio
Put plainly: KRAS^G12C/SOS1 protein-protein interaction Binding assay (CisBio kit). The settings on record: class symbols. The procedure: CisBio’s KRAS^G12C/SOS1 kit was used to test the efficacy of the compound on inhibiting the protein-protein interaction between SOS1 and KRAS^G12Cby Binding assay.Results were expressed as IC50values.
Test methods: (1) the test compound was tested at a concentration of 1000 nM. Diluted to 3-fold diluted compound of a 200-fold final concentration of 100% DMSO solution in a 384-well plate at 10 concentrations. 50 nL of 200-fold final concentration of compound was transferred to the destination plate 384 well plate using a dispenser Echo 550.50 nL of 100% DMSO was added to the negative control wells and positive control wells; (2) 4-fold final concentration of Tag1 SOS1 solution was prepared using Diluent buffer; (3) 2.5 µL of 4-fold final concentration of Tag1 SOS1 solution was added to the 384-well plate; (4) 4-fold final concentration of Tag2 KRAS^G12C solution was prepared using Diluent buffer; (5) 2.5 µL of 4-fold final concentration of Tag2 KRAS^G12C solution was added to compound wells and positive control wells, respectively; 2.5 µL of diluent buffer was added to negative control wells; (6) the 384-well plate was centrifuged at 1000 rpm for 30 seconds, shaken and mixed, and incubated at room temperature for 15 min; (7) 1-fold final concentration of Anti Tag1 TB3+ solution and 1-fold final concentration of Anti Tag2 XL665 solution were prepared with Detection buffer, and 5 µL of the mixture was added to each well after mixing the two solutions; (8) the 384-well plate was centrifuged at 1000 rpm for 30 seconds, shaken and mixed, and incubated at room temperature for 120 minutes; (9) the Envision enzyme marker was used to read
Em665/620; (10) data analysis, calculation formula; where Min signal is the mean value of negative control wells, Max signal is the mean value of positive control wells.The log value of concentration was used as the X-axis and the percentage inhibition as the Y-axis to fit the quantitative efficacy curve using the log(inhibitor) vs. response Variable slope of the quantitative efficacy curve of the analytical software GraphPad Prism 5 to derive the IC50 value of each compound on the enzyme activity.The fitting formula was: Y=Bottom+(Top Bottom)/(1+10^A((LogIC50X)^∗ HillSlope)).

The test system of experiment [1] is MiaPaca-2 cells (pancreatic cancer). Put plainly: Proliferation test method 1 (2D, MTT), MiaPaca-2. It is filed as cell-based. The settings on record: 5-7 days, read-out: IC50/nM proliferation inhibitory activity on MiaPaca-2 cells. On the procedure:
(§1) Test method 1 (2D):NCI-H358 (lung cancer) and MiaPaca-2 cells (pancreatic cancer) cells (100 µL/well, 20,000 cells/mL) were inoculated in 96-well culture plates supplemented with 10% fetal bovine serum and 1% penicillin/streptomycin sulfate, respectively.Using 0.5% dimethyl sulfoxide as a blank control, cells were treated with a solution of the compound to be tested at a starting concentration of 10 µM, tripled diluted testing solution of the compound in eight gradients were used to treat cells, and then incubated in a 5% CO2 incubator for a certain period of time (5-7 days).At the end of incubation, 10 µL of MTT stock solution (5 mg/mL) was added to each well.The culture plates were incubated at 37° C. for 4 h and then the medium was removed.Dimethyl sulfoxide (100 µL) was added to each well and then shaken sufficiently. The absorbance of the product formazanwas measured at 570 nm on the Thermo Scientific Varioskan Flash multimode reader.IC50 values were obtained by fitting dose-response data into a three-parameter nonlinear regression model using GraphPad Prism 6.0 software.

The subject of the next experiment is MiaPaca-2 cells. In words: Proliferation test method 2 (3D, Cell Titer Glo 3D), MiaPaca-2. The settings on record: Homo sapiens, MIA PaCa-2, 96 h, read-out: IC50 cell proliferation inhibitory activity against MiaPaca-2. Format: cell-based. On the procedure:
(§2) Test method 2 (3D): The tumor cells in the logarithmic growth phase were diluted with culture solution to a certain concentration and inoculated on the 96-well plate on the ultra-low attachment surface, and the culture medium was 80 µL/well. Cells were incubated overnight at 37° C. in a humidity chamber. On the second day, a series of diluted test compounds (10 concentrations, 3 times dilution) were added to the plate, 20 µL/well, incubated in an incubator for 96h.The plates are removed and placed at room temperature and incubated with an equal volume of Cell Titer Glo®3D reagent for 1 h. The signal is detected by the En Vision™ plate reader. […] A four-parameter nonlinear regression curve was fitted to the percent inhibition for each concentration of the compound and the IC50 was calculated.
In general terms: Cellular ATP, detected with luciferase, serves as a proxy for viable cell number.

The test system of a further experiment is NCI-H358 cells. In words: Proliferation test method 2 (3D, Cell Titer Glo 3D), NCI-H358. Format: cell-based. The settings on record: Homo sapiens, NCI-H358, 96 h, read-out: IC50 cell proliferation inhibitory activity against NCI-H358. The procedure: as §2
In experiment [2] the test system is NCI-H358 (lung cancer) cells. In words: Proliferation test method 1 (2D, MTT), NCI-H358. It is filed as cell-based. The settings on record: Homo sapiens, 5-7 days, read-out: IC50 proliferation inhibitory activity against NCI-H358. On the procedure: as §1
Experiment [3] deals with phosphorylated ERK levels of MiaPaca-2. In words: ERK phosphorylation (western blot), MiaPaca-2. Format: cell-based. The following applies: Homo sapiens, MIA PaCa-2, 24 h. On the procedure: (§3) Test method 3 (ERK phosphorylation): Miapaca-2 or H358 cells were inoculated at certain concentrations in 96-well plates and incubated overnight at 37° C., 5% CO2 in a cell culture incubator, and serial dilutions of the test compound (5 concentrations, 3-fold dilution) were added to the plates the next day for 24 h (Miapaca-2) or 3 h (H358), then lysis solution containing protease and phosphatase inhibitor were added to lyse the cells to extract proteins and western blot method was used to detect the level of p-ERK.
Background: Immunoblotting shows a protein as a band on a membrane.

The test system of experiment [4] is phosphorylated ERK levels of NCI-H358. Put plainly: ERK phosphorylation (western blot), H358. Format: cell-based. The following applies: Homo sapiens, 3 h. On the procedure:
as §3

Read-outs that look alike come from different tables or passages of the source. A value given as a limit tells only on which side of the number the result lay.

T1 sequence (P01116 1-188 isoform P01116-2 G12C): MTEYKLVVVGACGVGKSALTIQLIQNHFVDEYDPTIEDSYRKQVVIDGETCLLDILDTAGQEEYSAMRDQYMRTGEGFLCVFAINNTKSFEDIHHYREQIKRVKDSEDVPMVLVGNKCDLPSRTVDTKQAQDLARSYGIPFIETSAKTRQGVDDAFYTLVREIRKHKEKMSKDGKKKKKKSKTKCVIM

Take `C=CC(=O)N1CC2C(=O)N(C)c3cnc4c(F)c(-c5c(O)cccc5F)c(Cl)cc4c3N2CC1C` (single isomer, unassigned) [Comparative Compound 2-2, reference compound]: the IC50 on KRAS^G12C/SOS1 was > 1000 nM.
Take `C=CC(=O)N1C[C@@H]2C(=O)N(C)c3cnc4c(F)c(-c5ccc(F)c6sc(N)nc56)c(Cl)cc4c3N2C[C@H]1C` (single isomer, unassigned) [Example 17-2]: the IC50 in experiment [1] (2D) came out at 23.1 nM.
In the case of `C=CC(=O)N1CCN(c2nc(NC[C@@H]3CCCN3C)nc3c(F)c(-c4ccc(F)c5sc(N)nc45)c(Cl)cc23)CC1` [Example 2, 1-(4-(7-(2-Amino-7-Fluorobenzo[d]Thiazol-4-yl)-6-Chloro-8-Fluoro-2-((((S)-1-Methylpyrrolidin-2-yl)Methyl)Amino)Quinazolin-4-yl)Piperazin-1-yl)Prop-2-En-1-One], the IC50 in experiment [1] (Homo sapiens, MIA PaCa-2, 2D) is 13.2 nM; in the experiment with MiaPaca-2 cells it was < 200 nM; with NCI-H358 cells it was < 200 nM; at KRAS^G12C/SOS1, < 50 nM.
As for `C=CC(=O)N1CCN(c2c(C#N)c(NC[C@@H]3CCCN3C)nc3c(F)c(-c4ccc(F)c5sc(N)nc45)c(Cl)cc23)CC1` [Example 4, 4-(4-Piperazinylacryloylpiperazin-1-yl)-7-(2-Amino-7-Fluorobenzo[d]Thiazol-4-Yl)-6-Chloro-8-Fluoro-2-((((S)-1-Methylpyrrolin-2-yl)Methyl)Amino)Quinoline-3-Cyano], the IC50 in experiment [1] (Homo sapiens, MIA PaCa-2, 2D) is 1.1 nM; on KRAS^G12C/SOS1, < 50 nM.
For `C=CC(=O)N1CCN(c2nc(OCCN(C)C)nc3c(F)c(-c4ccc(F)c5sc(N)nc45)c(Cl)cc23)CC1` [Example 5], the IC50 with MiaPaca-2 cells was < 200 nM; with NCI-H358 cells, < 200 nM; on KRAS^G12C/SOS1, < 50 nM; in experiment [2], < 100 nM; in experiment [3], < 500 nM; in experiment [4], < 500 nM.
`C=CC(=O)N1CCN(c2nc(Cl)nc3c(F)c(-c4ccc(F)c5sc(N)nc45)c(Cl)cc23)CC1` [Example 6, 1-(4-(7-(2-Amino-7-Fluorobenzo [d] Thiazol-4-yl)-2,6-Dichloro-8-Fluoroquinazolin-4-yl) Piperazin-1-yl) Prop-2-Ene-1-One]: the IC50 in experiment [1] (Homo sapiens, MIA PaCa-2, 2D) was 35 nM; on KRAS^G12C/SOS1, 50 to 200 nM.
On to `C=CC(=O)N1CCN(c2c(C#N)c(Cl)nc3c(F)c(-c4ccc(F)c5sc(N)nc45)c(Cl)cc23)CC1` [Example 7], for which the IC50 was 23.1 nM in experiment [1] (Homo sapiens, MIA PaCa-2, 2D) and 50 to 200 nM on KRAS^G12C/SOS1.
As for `C=C(F)C(=O)N1CCN(c2c(C#N)cnc3c(F)c(-c4ccc(F)c5sc(N)nc45)c(Cl)cc23)CC1` [Example 9, 7-(2-Amino-7-Fluorobenzo [d] Thiazol-4-yl) -6-Chloro-8-Fluoro-4-(4-(2-Fluoroacryloyl) Piperazin-1-yl) Quinolin-3-Cyano], the IC50 is 362 nM in experiment [1] (Homo sapiens, MIA PaCa-2, 2D) and 50 to 200 nM on KRAS^G12C/SOS1.
For the compound `C=CC(=O)N1CCN(c2nc(OC[C@@H]3CCCN3C)nc3c(F)c(-c4ccc(F)c5sc(N)nc45)c(Cl)cc23)CC1CC#N` (stereo partly drawn) [Example 12, 2-(1-acryloyl-4-(7-(2-Amino-7-Fluorobenzo [d] Thiazol-4-yl) -6-Chloro-8-Fluoro-2-(((S)-1-Methylpyrrolidin-2-yl) Methoxy) Quinazolin-4-yl) Piperazin-2-yl) Acetonitrile], the IC50 was 19.3 nM in experiment [1] (Homo sapiens, MIA PaCa-2, 2D) and 50 to 200 nM at KRAS^G12C/SOS1.
With `C=CC(=O)N1CCN(c2c(C#N)cnc3c(F)c(-c4ccc(F)c5sc(N)nc45)c(Cl)cc23)CC1CC#N` (centres unmarked) [Example 15, 4-(4-Acryloyl-3-(Cyanomethyl) Piperazin-1-yl)-7-(2-Amino-7-Fluorobenzo [d] Thiazol-4-yl)-6-Chloro-8-Fluoroquinolin-3-Cyano], the IC50 in experiment [1] (Homo sapiens, MIA PaCa-2, 2D) is 390 nM; at KRAS^G12C/SOS1, 200 to 1000 nM.
Consider `C=CC(=O)N1CCN(c2nc(NCCC(=O)N(C)C)nc3c(F)c(-c4ccc(F)c5sc(N)nc45)c(Cl)cc23)CC1` [Example 19, 3-((4-(4-Acryloylpiperazin-1-yl)-7-(2-Amino-7-Fluorobenzo [d] Thiazol-4-yl)-6-Chloro-8-Fluoroquinazolin-2-yl) Amino)-N,N-Dimethylpropanamide], for which the IC50 in experiment [1] (Homo sapiens, MIA PaCa-2, 2D) was 28 nM; at KRAS^G12C/SOS1 it was 50 to 200 nM.
The corresponding values for `C=CC(=O)N1CCN(c2c(C#N)c(NCCC(=O)N(C)C)nc3c(F)c(-c4ccc(F)c5sc(N)nc45)c(Cl)cc23)CC1` [Example 22, 3-((4-(4-Acryloylpiperazin-1-yl)-7-(2-Amino-7-Fluorobenzo [d] Thiazol-4-yl)-6-Chloro-3-Cyano-8-Fluoroquinolin-2-yl) Amino)-N,N-Dimethylpropanamide] are 0.93 nM and 50 to 200 nM.
The corresponding values for `C=CC(=O)N1CCN(c2nc(OC[C@@H]3C[C@@H](O)CN3C)nc3c(F)c(-c4ccc(F)c5sc(N)nc45)c(Cl)cc23)CC1` [Example 24, 1-(4-(7-(2-Amino-7-Fluorobenzo[d]Thiazol-4-yl)-6-Chloro-8-Fluoro-2-(((2S,4R)-4-Hydroxy-1-Methylpyrrolin-2-yl) Methoxy) Quinazolin-4-yl) Piperazin-1-yl) Prop-2-En-1-One] are < 1 nM and < 50 nM.
With `C=CC(=O)N1CCN(c2nc(OC[C@@H]3C[C@H](F)CN3C)nc3c(F)c(-c4ccc(F)c5sc(N)nc45)c(Cl)cc23)CC1` [Example 25], the IC50 on KRAS^G12C/SOS1 is < 50 nM; in experiment [2], < 100 nM; in experiment [3], < 500 nM; in experiment [4] it was < 500 nM.
For the compound `C=CC(=O)N1CCN(c2nc(OC[C@@H]3C[C@@H](F)CN3C)nc3c(F)c(-c4ccc(F)c5sc(N)nc45)c(Cl)cc23)CC1` [Example 27], the IC50 is < 1 nM in experiment [1] (2D) and < 50 nM on KRAS^G12C/SOS1.
On to `C=C(F)C(=O)N1C[C@@H]2C(=O)N(C)c3cnc4c(F)c(-c5ccc(F)c6sc(N)nc56)c(Cl)cc4c3N2C[C@H]1C` [Example 28, (2R,4aR)-10-(2-Amino-7-Fluorobenzo[d]Thiazol-4-yl)-11-Chloro-9-Fluoro-3-(2-Fluoroacryloyl)-2,6-Dimethyl-2,3,4,4a-Tetrahydro-1H-Pyrazin [1′,2′:4,5] Pyrazin [2,3-c] Quinolin-5(6H)-one], for which the IC50 was 63.2 nM in experiment [1] (Homo sapiens, MIA PaCa-2, 2D) and 50 to 200 nM on KRAS^G12C/SOS1.
